Measurements as given in patent publication US10201564B2, “Methods of using inhaled nitric oxide gas for treatment of acute respiratory distress syndrome in children” (Mallinckrodt Hospital Products IP Limited, priority 2014, dated 2019).

Tested on: pediatric subjects with acute hypoxemic respiratory failure (AHRF)
Experiment: Pediatric AHRF study: adverse events, serious adverse events, deaths, discontinuations
Assay type: in vivo, human
Procedure: This was a prospective, multicenter, randomized, double-blind, placebo-controlled, parallel-group study of the safety and efficacy of inhaled nitric oxide in pediatric subjects with acute hypoxemic respiratory failure (AHRF). The subjects were randomized to receive either 5 ppm inhaled nitric oxide or placebo.
Nitric Oxide for inhalation at 5 ppm was administered continuously into the inspiratory limb of the ventilator circuit in mechanically ventilated subjects using a blinded version of the INOvent® delivery system.
Subjects received 100% treatment gas (nitric oxide 5 ppm or placebo [nitrogen gas]) until Day 28 or extubation, whichever occurred first.
This was a prospective, multicenter, randomized, double-blind, placebo-controlled, Phase III study to assess the effects of nitric oxide for inhalation in the treatment of acute hypoxic respiratory failure (AHRF) in pediatric subjects. The study population consisted of male and female pediatric subjects, aged 44 weeks postconceptional age to 16 years age, who were admitted to the pediatric intensive care unit (PICU) and who required intubation because of AHRF. The inclusion/exclusion criteria are described in the Patients section below.
Standardized ventilatory management and weaning procedures were used. Ventilatory management was used based on an “open lung approach” using positive end-expiratory pressure (PEEP) to increase lung volume and limiting tidal volumes to reduce plateau pressures. Subjects received nitric oxide for inhalation at 5 ppm or placebo (100% Grade 5 nitrogen gas) into the inspiratory limb of the ventilator circuit using a blinded version of the INOvent® delivery system. The subjects were treated until Day 28 or extubation, whichever occurred first. Subjects were assessed daily using a spontaneous breathing trial, according to the institution's standard of care. Arterial blood gases (ABG), ventilator settings, methemoglobin, oxygenation index, systolic blood pressure, diastolic blood pressure, Pediatric Risk of Mortality (PRISM) III score, and subject positioning (prone or supine) were performed/recorded at specified times during the study. Selected centers also performed plasma cytokine assays, bronchoalveolar lavage fluid (BALF) assays, and a 6-month follow-up assessment.

[1] = 5 ppm, relationship to study treatment Suspected

[N]=O [Nitric Oxide, nitric oxide]
Serious adverse event: Hypotension, subjects n (%) [1]: 0 (0.0)
Serious adverse event: Hypoxia, subjects n (%) [1]: 0 (0.0)
Serious adverse event: Intracranial pressure increased, subjects n (%) [1]: 0 (0.0)
Serious adverse event: Multi-organ failure, subjects n (%) [1]: 0 (0.0)
Serious adverse event: Pancreatitis, subjects n (%) [1]: 0 (0.0)
Serious adverse event: Pneumonia, aspergillus, subjects n (%) [1]: 0 (0.0)
Serious adverse event: Pulmonary hemorrhage, subjects n (%) [1]: 0 (0.0)
Serious adverse event: Renal failure, acute, subjects n (%) [1]: 0 (0.0)
Serious adverse event: Renal failure, subjects n (%) [1]: 0 (0.0)
Serious adverse event: Renal impairment, subjects n (%) [1]: 0 (0.0)
Serious adverse event: Respiratory failure, subjects n (%) [1]: 0 (0.0)
Serious adverse event: Sepsis, subjects n (%) [1]: 0 (0.0)
Serious adverse event: Subdural hematoma, subjects n (%) [1]: 0 (0.0)
Serious adverse event: Unevaluable event, subjects n (%) [1]: 0 (0.0)
Abdominal distension (5 ppm, subjects with AE): 0 (0.0) n (%)
Acidosis (5 ppm, subjects with AE): 1 (3.8%) n (%)
Agitation (5 ppm, subjects with AE): 2 (7.7%) n (%)
Anemia (5 ppm, subjects with AE): 1 (3.8%) n (%)
Apnea (5 ppm, subjects with AE): 1 (3.8%) n (%)
Arrhythmia (5 ppm, subjects with AE): 1 (3.8%) n (%)
Ascites (5 ppm, subjects with AE): 1 (3.8%) n (%)
Bacteremia (5 ppm, subjects with AE): 2 (7.7%) n (%)
Bacteria, blood (5 ppm, subjects with AE): 1 (3.8%) n (%)
Bacteria, sputum (5 ppm, subjects with AE): 0 (0.0) n (%)
Bladder distension (5 ppm, subjects with AE): 0 (0.0) n (%)
Brain edema (5 ppm, subjects with AE): 0 (0.0) n (%)
Bronchoalveolar lavage (5 ppm, subjects with AE): 1 (3.8%) n (%)
C-reactive protein increased (5 ppm, subjects with AE): 0 (0.0) n (%)
Cardiac arrest (5 ppm, subjects with AE): 0 (0.0) n (%)
Cerebral artery occlusion (5 ppm, subjects with AE): 0 (0.0) n (%)
Chest tube insertion (5 ppm, subjects with AE): 1 (3.8%) n (%)
Deep vein thrombosis (5 ppm, subjects with AE): 2 (7.7%) n (%)
Device failure (5 ppm, subjects with AE): 0 (0.0) n (%)
Diabetic ketoacidosis (5 ppm, subjects with AE): 0 (0.0) n (%)
Diarrhea (5 ppm, subjects with AE): 0 (0.0) n (%)
Disseminated intravascular coagulation (5 ppm, subjects with AE): 0 (0.0) n (%)
Empyema (5 ppm, subjects with AE): 0 (0.0) n (%)
Feeding disorder (5 ppm, subjects with AE): 0 (0.0) n (%)
Fungemia (5 ppm, subjects with AE): 1 (3.8%) n (%)
Fungus culture positive (5 ppm, subjects with AE): 0 (0.0) n (%)
Fungus urine test positive (5 ppm, subjects with AE): 0 (0.0) n (%)
Gangrene (5 ppm, subjects with AE): 1 (3.8%) n (%)
Gastrointestinal hemorrhage (5 ppm, subjects with AE): 0 (0.0) n (%)
Generalized edema (5 ppm, subjects with AE): 0 (0.0) n (%)
Hematuria (5 ppm, subjects with AE): 0 (0.0) n (%)
Hemoglobinemia (5 ppm, subjects with AE): 1 (3.8%) n (%)
Hemolytic anemia (5 ppm, subjects with AE): 0 (0.0) n (%)
Hemopneumothorax (5 ppm, subjects with AE): 0 (0.0) n (%)
Hemorrhage (5 ppm, subjects with AE): 0 (0.0) n (%)
Hemothorax (5 ppm, subjects with AE): 0 (0.0) n (%)
Hepatic failure (5 ppm, subjects with AE): 0 (0.0) n (%)
Hepatosplenomegaly (5 ppm, subjects with AE): 1 (3.8%) n (%)
Hyperammonemia (5 ppm, subjects with AE): 0 (0.0) n (%)
Hypercalcemia (5 ppm, subjects with AE): 1 (3.8%) n (%)
Hypercapnia (5 ppm, subjects with AE): 0 (0.0) n (%)
Hyperchloremia (5 ppm, subjects with AE): 1 (3.8%) n (%)
Hyperglycemia (5 ppm, subjects with AE): 1 (3.8%) n (%)
Hyperkalemia (5 ppm, subjects with AE): 1 (3.8%) n (%)
Hyperlipidemia (5 ppm, subjects with AE): 0 (0.0) n (%)
Hypernatremia (5 ppm, subjects with AE): 2 (7.7%) n (%)
Hypertension (5 ppm, subjects with AE): 0 (0.0) n (%)
Hypocalcemia (5 ppm, subjects with AE): 1 (3.8%) n (%)
Hypochloremia (5 ppm, subjects with AE): 0 (0.0) n (%)
Hypothermia (5 ppm, subjects with AE): 0 (0.0) n (%)
Hypoxia (5 ppm, subjects with AE): 0 (0.0) n (%)
Intracranial pressure increased (5 ppm, subjects with AE): 0 (0.0) n (%)
Labile blood pressure (5 ppm, subjects with AE): 0 (0.0) n (%)
Leukocytosis (5 ppm, subjects with AE): 1 (3.8%) n (%)
Lung infection, pseudomonal (5 ppm, subjects with AE): 0 (0.0) n (%)
Medical device removal (5 ppm, subjects with AE): 0 (0.0) n (%)
Metabolic acidosis (5 ppm, subjects with AE): 0 (0.0) n (%)
Metabolic alkalosis (5 ppm, subjects with AE): 1 (3.8%) n (%)
Multi-organ failure (5 ppm, subjects with AE): 0 (0.0) n (%)
Ocular icterus (5 ppm, subjects with AE): 0 (0.0) n (%)
Oliguria (5 ppm, subjects with AE): 0 (0.0) n (%)
Oxygen saturation decreased (5 ppm, subjects with AE): 2 (7.7%) n (%)
Pancreatitis (5 ppm, subjects with AE): 0 (0.0) n (%)
Pleural effusion (5 ppm, subjects with AE): 0 (0.0) n (%)
Pneumomediastinum (5 ppm, subjects with AE): 0 (0.0) n (%)
Pneumonia (5 ppm, subjects with AE): 1 (3.8%) n (%)
Pneumonia, aspergillus (5 ppm, subjects with AE): 0 (0.0) n (%)
Pneumonia, staphylococcal (5 ppm, subjects with AE): 1 (3.8%) n (%)
Pruritus (5 ppm, subjects with AE): 0 (0.0) n (%)
Pseudomonal sepsis (5 ppm, subjects with AE): 1 (3.8%) n (%)
Pulmonary hemorrhage (5 ppm, subjects with AE): 0 (0.0) n (%)
Pulmonary hypertension (5 ppm, subjects with AE): 0 (0.0) n (%)
Pyrexia (5 ppm, subjects with AE): 0 (0.0) n (%)
Renal failure (5 ppm, subjects with AE): 1 (3.8%) n (%)
Renal failure, acute (5 ppm, subjects with AE): 0 (0.0) n (%)
Renal impairment (5 ppm, subjects with AE): 0 (0.0) n (%)
Respiratory acidosis (5 ppm, subjects with AE): 0 (0.0) n (%)
Sepsis (5 ppm, subjects with AE): 0 (0.0) n (%)
Skin injury (5 ppm, subjects with AE): 0 (0.0) n (%)
Subdural hematoma (5 ppm, subjects with AE): 0 (0.0) n (%)
Thrombocythemia (5 ppm, subjects with AE): 1 (3.8%) n (%)
Thrombocytopenia (5 ppm, subjects with AE): 0 (0.0) n (%)
Tracheitis (5 ppm, subjects with AE): 2 (7.7%) n (%)
Unevaluable event (5 ppm, subjects with AE): 2 (7.7%) n (%)
Urinary tract infection (5 ppm, subjects with AE): 1 (3.8%) n (%)
Urinary tract infection, fungal (5 ppm, subjects with AE): 1 (3.8%) n (%)
Urine output decreased (5 ppm, subjects with AE): 1 (3.8%) n (%)
White blood cell count increased (5 ppm, subjects with AE): 0 (0.0) n (%)
AE in which death was the outcome, subject 2001A (died after the treatment period): No AE listed in which death was the outcome
AE in which death was the outcome, subject 2007 (donor two): No AE listed in which death was the outcome
relationship of deaths, serious AEs, severe AEs and AEs resulting in discontinuation to study treatment (in words): No death, serious AE, severe AE, or AE resulting in treatment discontinuation was suspected to be related to study treatment
SAE (identification of subjects with serious adverse events) (subject 3003 (person one), nitric oxide group): Bradycardia, hypotension
Action/Reported Outcome of SAE (subject 3003 (person one), nitric oxide group, DC = discontinued treatment): DC/death
